Data published in patent US20100297262A1, “[…] ACTIVE COMPOSITIONS COMPRISING OXIDATIVE STRESS MODULATORS (OSM), NEW CHEMICAL […], COMPOSITIONS AND USES” (COLBY PHARMACEUTICAL COMPANY, priority 2009, published 2010).
Read-outs that look alike come from different tables or passages of the source.

What was measured:
[1] = Distribution and clearance of alkylTPP compounds (i.v., feeding tritiated compounds, drinking water); settings: mice
PC-3 cells [2] = test: Cellular ROS as ratio DCF fluorescence:DNA fluorescence; settings: 20 μM Vitamin E (non-toxic dose)
LNCaP cells [3] = test: Cellular ROS as ratio DCF fluorescence:DNA fluorescence, Example 12
From the text: Fluorescence of oxidized DCF dye is proportional to the total cellular ROS. When DCF fluorescence is normalized with the DNA fluorescence from the same well of the 96-well plate, the ratio DCF fluorescence:DNA fluorescence is proportional to the ROS generated per cell.

acetyl histone H4 = test: Western blot analysis of acetylated histones
in vivo [4] = test: in vivo
Description: (§1) Pharmacokinetic (PK) studies of PMCol in mice administered 100 mg/kg PMCol p.o. or 5 mg/kg of PMCol i.v., using Liquid Chromatography-Mass Spectroscopic (LC-MS) analyses.

[5] = type: physicochemical; settings: pH 2
LAPC4 = test: Growth of human prostate tumor cells in culture, PMCol; type: cell-based
Description: as §1
(§2) Mito-PMCol analogs and PMCol were compared for their relative cytostatic/anti-proliferative and cytotoxic and therapeutic activities in tumor cell systems as measured by clonogenic assays and direct live and dead cell counts are performed in a hemacytometer by trypan blue dye exclusion assay or by DNA fluorescence assays following routine published procedures established in our labs.

LNCaP = test: as above; type: cell-based
Description: as §1, §2

DU-145 = test: as above; type: cell-based
Description: as §1, §2

[6] = test system: spontaneous TRAMP mouse tumors; test: TRansgenic Adenocarcinoma of Mouse Prostate (TRAMP) model; type: in vivo
Description: The inhibitory effect of PMCol on prostate tumor growth is tested in the well characterized […] Adenocarcinoma of Mouse Prostate (TRAMP) model. […] Tumor development in PMCol treated animals was delayed by over 8 weeks as compared to the control animals.

[7] = rat, in vivo, po
Description: (§3) In order to test the efficacy of PMCol-C2 or Mito-PMCol-C10 in inhibiting growth of prostate tumors in vivo, the PMCol drug formulation was standardized, the route of its administration was determined and determination of the maximum tolerated dose (MTD), when administered orally or by i.v. injection.

in vivo [8] = settings: mouse
Description: as §3

MDA-MB231 = test: DNA fluorescence cell growth assay; settings: Vitamin E pretreated
[9] = patients, oral SAHA 400 mg qd, cited from earlier work
NCI-H460 = test: DNA fluorescence cell growth assay; settings: any concentration of SAHA
all cell lines = test: DNA fluorescence cell growth assay, cell lines taken together; type: cell-based, human
[10] = test system: superoxide dismutase (SOD); test: SOD assay; type: cell-based, human; settings: pretreated with 0.05 nM or 1 nM R1881 prior to 10 μM SAHA
LNCaP cells [11] = test: DNA (Hoechst 33258) fluorescence cell growth assay, Example 12; type: cell-based, human; settings: for cell growth (DNA fluorescence) with logarithmic increase in SAHA concentration: SAHA 0-10 μM
LNCaP cells [12] = test: LC-MS estimation of intracellular SAHA concentration; settings: Vitamin E pretreated cells, first 24 hours
Description: Ten μL of each extract was used for LC-MS analysis, and the assay was repeated three times.
The solvent gradient and the flow rates were adjusted appropriately. A 5 minute post-run column wash at 10% solvent A, 90% solvent B was maintained at 0.2 ml/min. The column thermostat was maintained at 25° C. for the complete run.
The Mass detector for the mass detection was carried out with Agilent 1100 quadruple moment bench-top mass spectrometer with electrospray ionization in the positive ion mode at 3000 V. For both the single ion MS and scanning MS/MS mode, the desolvation temperature was 340° C. with the drying gas flow rate of 12 l/min at a nebular pressure of 40 psig. […] All data were collected, stored and analyzed using Agilent software for data collection, peak detection and integration.

HT-29 = test: DNA fluorescence cell growth assay; settings: Vitamin E pretreated
[13] = test system: recurrent glioblastoma multiforme; settings: compared to 4-4.4 months in earlier studies; cited from earlier work
[14] = test system: advanced non-small-cell lung cancer (NSCLC); settings: survival improvements not significant at P=0.05; cited from earlier work
HDAC = test system: HDAC
From the text: The HDAC activity is expressed as a ratio of HDAC product fluorescence/DNA fluorescence in relative fluorescence unit (FU).

PC-3 cells [15] = test: DNA fluorescence cell growth assay; settings: SAHA below 10 μM
A549 = test: DNA fluorescence cell growth assay; settings: any concentration of SAHA
[16] = test system: latently HIV infected T-Cells; settings: cited from earlier work
LNCaP cells [17] = settings: cited from earlier work
[18] = test system: LNCaP cells transfected with the control vector containing scrambled sequence; test: ROS production in vector control cells; type: cell-based, human; settings: R1881 treatment
siSSAT clone = test: ROS production in siSSAT clone; type: cell-based, human; settings: R1881 treatment
COS-7 cells = settings: Treatment: H2O2; cited from earlier work
[19] = test system: Bovine aortic endothelial cells; settings: Treatment: H2O2 or hydroperoxyoctadecadienoic acid; cited from earlier work
[20] = test system: Isolated kidney mitochondria; settings: Treatment: Superoxide; cited from earlier work
Jurkat cells = settings: Treatment: H2O2; cited from earlier work
[21] = test system: Human colon cancer cell lines (HCT116 and RKO); settings: Treatment: 5-Fluorouracil; cited from earlier work
[22] = test system: Friedreich's ataxia patient primary skin fibroblasts; settings: Treatment: Glutathione depletion; cited from earlier work
[23] = test system: Rat primary cerebellar granule cells; settings: Treatment: Ethanol; cited from earlier work
[24] = test system: Isolated liver mitochondria; settings: Treatment: Ferrous iron/ascorbate; cited from earlier work
[25] = agent alone: 20 μM Vitamin E, 1 nM R1881 or 2 μM SAHA

With `CC1(C)CC(OCCCCC[P+](c2ccccc2)(c2ccccc2)c2ccccc2)CC(C)(C)N1[O].[Br-]` [Mito-Tempol] the “redistribution once in the bloodstream” value [1] was “rapidly redistribute into organs”.
For `Cc1c(C)c2c(c(C)c1OC(=O)CCC(=O)O)CC[C@@](C)(CCC[C@H](C)CCC[C@H](C)CCCC(C)C)O2` [Vitamin E, αTocopherol succinate], the ROS levels (PC-3 cells [2]) was “markedly reduces the ROS levels”, the ROS levels (LNCaP cells [3]; 20 μM Vitamin E (non-toxic dose), LNCaP treated and untreated with R1881) was “markedly reduces the ROS levels” and the “acetyl histone H4 level” value (acetyl histone H4; Vitamin E + R1881 + SAHA) was “almost completely restores”. The “acetyl-histone H4 level” value (acetyl histone H4; [25]) was “little effect on the acetyl-histone H4 level”.
For `CC1=C(C)C(=O)C(CCC(C)(C)O)=C(C)C1=O` [PMQ, 2-(3-hydroxy-3-methylbutyl)-3,5,6-trimethyl-1,4-benzo-quinone], the “time the metabolite remained in the serum” value (in vivo [4]; mice, oral PMCol, last time point of PK studies) was “at least 24 hours” and the “appearance of the LC-MS peak in serum after oral administration of PMCol” value (in vivo [4]; mouse, in vivo, po) was “appears in serum within minutes”.
With `Cc1c(C)c2c(c(C)c1O)CCC(C)(C)O2` [PMCol, 2,2,5,7,8-pentamethyl-6-chromanol] the acid stability [5] was “lability”, the “growth of androgen-dependent LAPC4 cells in culture” value (LAPC4) was “inhibits the growth” and the “growth of androgen-dependent LNCaP cells in culture” value (LNCaP) was “inhibits the growth”. The “growth of androgen-independent DU-145 cells in culture” value (DU-145) was “inhibits the growth”, the “delay of tumor development as compared to the control animals” value ([6]; TRAMP model, PMCol treated animals) was “over 8 weeks” and the “growth of spontaneous TRAMP mouse tumors” value ([6]; mouse, in vivo) was “inhibits the growth”. The DLT [7] was 2 grams/kilogram/day, the safety of administration (in vivo [8]) was “safely administered” and the MTD (in vivo [8]; iv) was 7.5 mg/kg. The MTD (in vivo [8]; po) was 100 mg/kg, the oxidized metabolite (in vivo [4]; mouse, in vivo) was “ring-opened PMQ” and the “bioavailability in blood serum” value (in vivo [4]; mouse, in vivo, iv) was 0.5 mg/kg. For the same compound, the half-life (in vivo [4]; mouse, in vivo, iv) was 2 h, the “time after injection within which serum levels went down quickly” value (in vivo [4]; mouse, in vivo, iv, 5 mg/kg) was at most 2 h and the “bioavailability in blood serum” value (in vivo [4]; mouse, in vivo, po) was 4 mg/kg. For the same compound, the half-life (in vivo [4]; mouse, in vivo, po) was 0.5 h, the in vivo metabolism (in vivo [4]; mouse, in vivo, po) was “oxidized in vivo to the hydroxylated-PMCol” and the “time after administration within which serum levels went down quickly” value (in vivo [4]; mouse, in vivo, po, 100 mg/kg) was at most 15 min.
In the case of `O=C(CCCCCCC(=O)Nc1ccccc1)NO` [SAHA, Suberoylanilide hydroxamic acid], the “SAHA sensitivity compared to Vitamin E untreated cells” value (MDA-MB231) is listed as “higher in Vitamin E pretreated cells”, the “serum SAHA level” value [9] is listed as about 349 ng/mL and the “serum SAHA level” value ([9]; clinically achievable) is listed as about 1.3 µM. The “change of SAHA sensitivity after Vitamin E pretreatment” value (NCI-H460) was “do not show any appreciable increase in SAHA sensitivity”, the “cellular ROS (DCF/DNA fluorescence) with increase in SAHA concentration” value (LNCaP cells [3]; no R1881) was “ROS increases” and the “cellular ROS (DCF/DNA fluorescence) with increase in SAHA concentration” value (LNCaP cells [3]; pretreated with 0.05 nM R1881) was “negligible effect on total cellular ROS levels”. For the same compound, the “cellular ROS (DCF/DNA fluorescence) with increase in SAHA concentration” value (LNCaP cells [3]; pretreated with 2 nM R1881) was “negligible effect on total cellular ROS levels”, the “nature of the increase in SAHA sensitivity (formalism of Chou and Talalay)” value (all cell lines; Vitamin E pretreatment followed by SAHA) was “synergistic” and the “activity at clinically achievable serum level (~1.3 μM)” value (all cell lines; cell lines untreated with Vitamin E or another similar anti-oxidant) was “inactive”. The “sensitivity to SAHA at a concentration much below the clinically achievable serum level” value (all cell lines; prostate, breast and colon cancer cells pretreated with anti-oxidants such as Vitamin E) was “highly sensitive”, the “SOD activity of LNCaP cells” value [10] was “no significant difference in the SOD activity” and the “cell growth (DNA fluorescence) with logarithmic increase in SAHA concentration” value (LNCaP cells [11]; no R1881) was “inhibited almost linearly”. The “cell growth (DNA fluorescence)” value (LNCaP cells [11]; normal androgen level (1 nM R1881), even at 10 μM SAHA) was “little effect on cell growth”, the “cell growth (DNA fluorescence) with logarithmic increase in SAHA concentration” value (LNCaP cells [11]; pretreated with 0.05 nM R1881) was “inhibited almost linearly” and the “cell growth (DNA fluorescence)” value (LNCaP cells [11]; pretreated with 2 nM R1881, all SAHA concentrations tested) was “negligible effect on cell growth”. The “intracellular SAHA level” value (LNCaP cells [12]) was “no significant decrease”, the “SAHA sensitivity compared to Vitamin E untreated cells” value (HT-29) was “higher in Vitamin E pretreated cells” and the median overall survival [13] was 5.7 months. The response and survival [14] was “improved response rates and increased median progression free survival and overall survival”, the “acetyl-histone H4 level” value (acetyl histone H4; 1 nM R1881 pretreated cells + 2 μM SAHA) was “marked decrease” and the “acetyl-histone H4 level” value (acetyl histone H4; [25]) was “small, but significant increase”. The “HDAC activity with increasing concentrations of SAHA” value (HDAC; R1881 untreated vector control cells, androgen-treated and untreated siSSAT cells) was “decreases in a similar fashion”, the “HDAC activity with increasing concentrations of SAHA” value (HDAC; vector control cells pretreated with 1 nM R1881) was “increases after an initial decrease” and the “resistance of PC-3 cells to SAHA” value (PC-3 cells [15]) was “intrinsically resistant”. The “change of SAHA sensitivity after Vitamin E pretreatment” value (A549) was “do not show any appreciable increase in SAHA sensitivity” and the “effects against latently HIV infected T-Cells” value [16] was “both in vitro and in vivo effects”.
In the case of `C[C@]1(O)CC[C@H]2[C@@H]3CCC4=CC(=O)CCC4=C3C=C[C@@]21C` [R1881], the “cellular ROS (DCF dye oxidation) compared to 1-10 nM” value (LNCaP cells [17]; R1881 concentrations less than 0.1 nM, Ripple et al. 1997) is given as “significantly lower cellular ROS”, the “cellular ROS (DCFH-DA dye oxidation) compared to 1 nM to 10 nM” value (LNCaP cells [17]; metribolone concentrations less than 1 nM, Ripple et al 1997) is given as “significantly lower cellular ROS” and the ROS production [18] is given as “marked increase”. For the same compound, the ROS production (siSSAT clone) was “no significant effect on ROS production”, the “effect on LNCaP cell growth” value (LNCaP cells [11]; 0.05 nM R1881) was “growth stimulatory” and the “effect on LNCaP cell growth” value (LNCaP cells [11]; 1 nM or above) was “growth inhibitory effect”. For the same compound, the “acetyl-histone H4 level” value (acetyl histone H4; [25]) was “little effect on the acetyl-histone H4 level”.
For `Cc1c(C)c2c(c(C)c1O)CCC(C)(CC[P+](c1ccccc1)(c1ccccc1)c1ccccc1)O2` (stereo not drawn) [MitoVE-C2], the “Outcome: growth factor receptor and kinase phosphorylation” value (COS-7 cells) is given as “Decreases growth factor”, the “Outcome: transferrin receptor expression and iron uptake” value [19] is given as “fluorescence. Decreases” and the “Outcome: activation of uncoupling proteins” value [20] is given as “Blocks activation of”. For the same compound, the “Outcome: apoptosis” value (Jurkat cells) was “Decreases apoptosis”, the “Outcome: apoptosis from 5-FU chemotherapy” value [21] was “Decreases apoptosis from 5-” and the “Outcome: cell death” value [22] was “Decreases cell death”. The “Outcome: dichlorofluorescein fluorescence and cell death” value [23] was “Decreases” and the “Outcome: lipid peroxidation, protein carbonyl formation and loss of membrane potential” value [24] was “Decreases lipid peroxidation,”.
